Data as given in PubChem BioAssay AID2060910 (Molecular Pharmacology Branch, DTP, NCI, 2025).

Tested on: 242566-281-R-J2-PDC complex spheroid viability
Test: Anticancer human tumor 242566-281-R-J2-PDC patient-derived pancreatic carcinoma cell line growth inhibition [RAS]
Conditions: for IC50: curve of first compound; for viability, T/C: stronger effect = lower value
Procedure, shortened: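 Multi-cell-type spheroids: tumor cells plus HUVEC endothelial cells and mesenchymal stem cells. RAS-pathway inhibitors were combined with targeted agents, each dosed in half-log steps down from clinical Cmax, or from 10 microM when Cmax was unknown.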
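Note: spheroids exposed to compound for 7 days before readout.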
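Throughout, for viability, T/C: 100% = DMSO vehicle control wells.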

Question: Which IC50 (second compound 0.0316 µM) does the source give for `CC1(C)CCC(Nc2ncc(C(F)(F)F)c(-c3c[nH]c4c(P(C)(C)=O)c(C#N)ccc34)n2)CN1` (configuration not stated) + C#Cc1c(F)ccc2cc(O)cc(-c3ncc4c(N5CC6CCC(C5)N6)nc(OCC56CCCN5CC(F)C6)nc4c3F)c12 here?
Answer: > 300 nM

Question: What about the IC50 (second compound 0.1 µM) of the same compound?
Answer: > 300 nM

Question: What about the IC50 (second compound 0.316 µM) of the same compound?
Answer: > 300 nM

Question: What about the IC50 (second compound 1 µM) of the same compound?
Answer: > 300 nM

Question: What about the IC50 (second compound 3.16 µM) of the same compound?
Answer: > 300 nM

Question: And the IC50 (second compound 10 µM)?
Answer: < 0.949 nM

Question: And the viability, T/C (second compound 0.0316 µM, first compound 0.000949 µM)?
Answer: 90.3%

Question: What about the viability, T/C (second compound 0.0316 µM, first compound 0.003 µM) of the same compound?
Answer: 111%

Question: And the viability, T/C (second compound 0.0316 µM, first compound 0.00949 µM)?
Answer: 85.6%

Question: What about the viability, T/C (second compound 0.0316 µM, first compound 0.03 µM) of the same compound?
Answer: 86.4%

Question: And the viability, T/C (second compound 0.0316 µM, first compound 0.0949 µM)?
Answer: 84.9%

Question: And the viability, T/C (second compound 0.0316 µM, first compound 0.3 µM)?
Answer: 88.8%

Question: And the viability, T/C (second compound 0.1 µM, first compound 0.000949 µM)?
Answer: 78.1%

Question: And the viability, T/C (second compound 0.1 µM, first compound 0.003 µM)?
Answer: 81.8%

Question: And the viability, T/C (second compound 0.1 µM, first compound 0.00949 µM)?
Answer: 71.6%

Question: And the viability, T/C (second compound 0.1 µM, first compound 0.03 µM)?
Answer: 81.7%

Question: What about the viability, T/C (second compound 0.1 µM, first compound 0.0949 µM) of the same compound?
Answer: 81.2%

Question: What about the viability, T/C (second compound 0.1 µM, first compound 0.3 µM) of the same compound?
Answer: 81.3%

Question: And the viability, T/C (second compound 0.316 µM, first compound 0.000949 µM)?
Answer: 70.7%

Question: What about the viability, T/C (second compound 0.316 µM, first compound 0.003 µM) of the same compound?
Answer: 66.6%

Question: And the viability, T/C (second compound 0.316 µM, first compound 0.00949 µM)?
Answer: 62.3%

Question: And the viability, T/C (second compound 0.316 µM, first compound 0.03 µM)?
Answer: 60.5%

Question: What about the viability, T/C (second compound 0.316 µM, first compound 0.0949 µM) of the same compound?
Answer: 62.9%

Question: What about the viability, T/C (second compound 0.316 µM, first compound 0.3 µM) of the same compound?
Answer: 62.9%

Question: And the viability, T/C (second compound 1 µM, first compound 0.000949 µM)?
Answer: 59.4%

Question: And the viability, T/C (second compound 1 µM, first compound 0.003 µM)?
Answer: 59.8%

Question: And the viability, T/C (second compound 1 µM, first compound 0.00949 µM)?
Answer: 49.3%

Question: What about the viability, T/C (second compound 1 µM, first compound 0.03 µM) of the same compound?
Answer: 47.4%

Question: What about the viability, T/C (second compound 1 µM, first compound 0.0949 µM) of the same compound?
Answer: 55.1%

Question: What about the viability, T/C (second compound 1 µM, first compound 0.3 µM) of the same compound?
Answer: 59.5%

Question: And the viability, T/C (second compound 3.16 µM, first compound 0.000949 µM)?
Answer: 50.8%

Question: What about the viability, T/C (second compound 3.16 µM, first compound 0.003 µM) of the same compound?
Answer: 57.5%

Question: And the viability, T/C (second compound 3.16 µM, first compound 0.00949 µM)?
Answer: 48.4%

Question: And the viability, T/C (second compound 3.16 µM, first compound 0.03 µM)?
Answer: 47.4%

Question: What about the viability, T/C (second compound 3.16 µM, first compound 0.0949 µM) of the same compound?
Answer: 49.8%

Question: And the viability, T/C (second compound 3.16 µM, first compound 0.3 µM)?
Answer: 53.3%

Question: What about the viability, T/C (second compound 10 µM, first compound 0.000949 µM) of the same compound?
Answer: 45.2%

Question: And the viability, T/C (second compound 10 µM, first compound 0.003 µM)?
Answer: 50%

Question: And the viability, T/C (second compound 10 µM, first compound 0.00949 µM)?
Answer: 44.7%

Question: And the viability, T/C (second compound 10 µM, first compound 0.03 µM)?
Answer: 50.2%

Question: What about the viability, T/C (second compound 10 µM, first compound 0.0949 µM) of the same compound?
Answer: 53.4%

Question: And the viability, T/C (second compound 10 µM, first compound 0.3 µM)?
Answer: 44.1%
